Assay results as given in ChEMBL document CHEMBL5214936, “Synthesis and evaluation of glycosylated quercetin to enhance neuroprotective effects on cerebral ischemia-reperfusion” (Bioorg Med Chem, 2022).
Calls of active or inactive are those of the source. The calls are words filed in the database; no cut-off is given here.

Columns and labels:
Rattus norvegicus [1] = experiment: Neuroprotective activity against middle cerebral artery occlusion induced cerebral ischemia reperfusion rat model assessed as decrease in brain SOD level at 10 mg/kg, ip preincubated for 0.5 hrs followed by reperfusion and measured after 24 hrs; assay type: functional, organism-based
Rattus norvegicus [2] = experiment: Neuroprotective activity against middle cerebral artery occlusion induced cerebral ischemia reperfusion rat model assessed infarct volume volume at 10 mg/kg, ip preincubated for 0.5 hrs followed by reperfusion and measured after 24 hrs by TTC staining based assay relative to control; assay type: functional, organism-based
Rattus norvegicus [3] = experiment: (§1) Neuroprotective activity against middle cerebral artery occlusion induced cerebral ischemia reperfusion rat model assessed decrease in neuronal loss in brain at 10 mg/kg, ip preincubated for 0.5 hrs followed by reperfusion and measured after 24 hrs by hematoxylin and eosin staining based microscopy; assay type: functional, organism-based
Rattus norvegicus [4] = experiment: Neuroprotective activity against middle cerebral artery occlusion induced cerebral ischemia reperfusion rat model assessed as increase in brain GSH level at 10 mg/kg, ip preincubated for 0.5 hrs followed by reperfusion and measured after 24 hrs; assay type: functional, organism-based
PC-12 [5] = experiment: Antioxidant activity in rat PC12 cells assessed as reduction in H2O2-induced ROS level at 20 to 100 uM preincubated for 2 hrs followed by H2O2 stimulation and measured after 2 hrs by DCFH-DA staining based fow cytometry; assay type: functional; parameters: scale not given: the % may be the effect or the level left; details: dose 20-100 µM
Rattus norvegicus [6] = experiment: as §1, with “morphological changes” for “neuronal loss”; assay type: functional, organism-based
[7] = Cytotoxicity against mouse BEND3 cells assessed as inhibition of cell viability at 20 to 50 uM incubated for 24 hrs by MTT assay; assay type: toxicity, cell-based; details: bend3, 24 h, dose 20-50 µM
Rattus norvegicus [8] = experiment: Neuroprotective activity against middle cerebral artery occlusion induced cerebral ischemia reperfusion rat model assessed as decrease in brain MDA level at 10 mg/kg, ip preincubated for 0.5 hrs followed by reperfusion and measured after 24 hrs; assay type: functional, organism-based
PC-12 [9] = experiment: Neuroprotective activity in rat PC12 cells assessed as reduction in H2O2-induced ROS generation at 20 to 100 uM preincubated for 2 hrs followed by H2O2 stimulation and measured after 2 hrs by DCFH-DA staining based fluorescence microscopic analysis; assay type: functional, cell-based; details: dose 20-100 µM
[10] = n-Octanol-water partition coefficient, logP of the compound at 1 mg and measured after 2 hrs by HPLC analysis; assay type: physicochemical
[11] = Stability of compound in phosphate buffer assessed as parent compound remaining after 48 hrs by HPLC analysis; assay type: physicochemical; details: read-out: Stability
PC-12 [12] = experiment: Cytotoxicity against rat PC-12 cells assessed as inhibition of cell viability at 20 to 50 uM incubated for 24 hrs by MTT assay; assay type: toxicity, cell-based; details: pc-12, 24 h, dose 20-50 µM
PC-12 [13] = experiment: Neuroprotective activity against H2O2-induced cytotoxicity in rat PC12 cells assessed as increase in cell viability at 2.5 to 100 uM preincubated for 2 hrs followed by H2O2 stimulation and measured after 2 hrs by MTT assay; assay type: functional, cell-based; details: dose 2.5-100 µM
PC-12 [14] = experiment: Cytotoxicity against rat PC-12 cells assessed as inhibition of cell viability at 2.5 to 50 uM incubated for 24 hrs by MTT assay; assay type: toxicity, cell-based; details: pc-12, 24 h, dose 2.5-50 µM
[15] = Cytotoxicity against mouse BEND3 cells assessed as inhibition of cell viability at 2.5 to 50 uM incubated for 24 hrs by MTT assay; assay type: toxicity, cell-based; details: dose 2.5-50 µM, read-out: Activity

SMILES	Activity (Rattus norvegicus [1])	Activity (Rattus norvegicus [2])	Activity (Rattus norvegicus [3])	Activity (Rattus norvegicus [4])	Activity (PC-12 [5]) [%]	Activity (Rattus norvegicus [6])	Activity [7]	Activity (Rattus norvegicus [8])	Activity (PC-12 [9])	logP at 2 h [10]	remaining at 48 h [11] [%]	Activity (PC-12 [12])	Activity (PC-12 [13])	Activity (PC-12 [14]) [%]	inhibition at 24 h, up to 50 µM [15] [%]
O=c1c(O)c(-c2ccc(O)c(O)c2)oc2cc(O)cc(O)c12 [QUERCETIN]	Active	Active	Active	Active	21.56	Active	Toxic	Active	Active	1.38	11.2	Toxic	Active		
O=c1c(O)c(-c2ccc(O)c(O)c2)oc2cc(OCc3cn(C[C@H]4O[C@@H](O)[C@H](O)[C@@H](O)[C@@H]4O)nn3)cc(O)c12	Active	Active	Active	Active	15.2	Active		Active	Active	-0.23	73.2		Active	> 80	> 80
O=c1c(O)c(-c2ccc(O)c(OCc3cn(C[C@H]4O[C@@H](O)[C@H](O)[C@@H](O)[C@@H]4O)nn3)c2)oc2cc(OCc3cn(C[C@H]4O[C@@H](O)[C@H](O)[C@@H](O)[C@@H]4O)nn3)cc(O)c12	Active	Active	Active	Active	5.06	Active		Active	Active	-1.12	81.5		Active	> 80	> 80
